Source: US20250122144A1, “Compound and Molded Body Comprising Same” (LG Chem, Ltd., priority 2022, published 2025)

Assay: Evaluation of heat resistance by thermogravimetric analyzer (TGA), primary thermal decomposition temperature
Format: physicochemical
Details: N2 atmospheric environment, FIG. 9
Protocol: In this experiment, the evaluation of heat resistance was defined as an extrapolated intersection point (primary thermal decomposition temperature) between a starting mass reference line and the tangent line of the maximum slope point in the first mass reduction section of a mass loss curve measured by a thermogravimetric analyzer (TGA) in an N2 atmospheric environment.
In the present disclosure, it is determined that when the primary thermal decomposition temperature of the compound has a value higher than the primary thermal decomposition temperature of the material before anion substitution, the heat resistance has increased.

Compound	Td (thermal decomposition temperature)	heat resistance compared with the material before anion substitution
C=C(C)C(=O)OCC[N+](C)(C)CCCCCCCCCC.[Br-] [Comparative Example 4-1]	about 230 °C	–
C=C(C)C(=O)OCC[N+](C)(C)CCCCCCCCCC.O=S(=O)([O-])O [Example 4-1]	–	heat resistance is improved
